Measured values from patent US20100272710A1, “COMPOSITIONS AND METHODS FOR TREATING AND PREVENTING AGING-ASSOCIATED DISEASES” (priority 2009, published 2010).
Like-named read-outs stand apart in the source and are kept apart here.

Legend:
[1] = test system: TXNIP; assay: Western blot of TXNIP expression in cancer cells (SaOS2, RGC); assay type: cell-based; conditions: for expression of TXNIP: increasing concentrations, Western blot
Procedure: (§1) SaOS2 cells were incubated in the presence of reduced glucose levels in the culture medium for 48 hours. Expression of TXNIP and Sirt1 were determined by Western blot using specific antibodies. Antibody to _-Actin was used as a loading control.
(§2) The RGC (4C) and SaOS2 (4D) cells were subjected to treatment with increasing concentrations of resveratrol (Resv.) for 48 hours followed by Western blot as described in Panel A.
(§3) SaOS2 cells were treated with increasing amounts of DHEA and probed for expression of Sirt1 and TXNIP; beta-actin was used as a loading control.
The cells were treated with different concentrations of glucose with or without DHEA. After 48 hours in cultures, proteins were separated by electrophoresis and probed for TXNIP. Staining with beta-actin antibody was used as a loading control.
(§4) The effects of limited glucose availability (used here to mimic the effect of calorie restriction), resveratrol (an activator of Sirt1) and DHEA (used for hormone replacement therapy), on the expression of TXNIP and Sirt1 were determined by Western blot using specific antibodies to the corresponding proteins (FIG. 4).

[2] = test system: Sirt1; assay type: cell-based; conditions: increasing concentrations, Western blot
Procedure: as §1, §2, §3, §4

[3] = test system: TXNIP; assay: Western blot of TXNIP expression in aortic smooth muscle cells; assay type: cell-based
Procedure: (§5) Effects of limited glucose availability, resveratrol and DHEA on expression of TXNIP and Sirt1 in normal cells. Aortic smooth muscle cells (4A) and human embryonic stem cells (4B) were treated as described in FIG. 1 for cancer cells. Expression Sirt1 and TXNIP were analyzed by Western blot using specific antibodies. Antibody to GAPDH was used as loading control. (Glc: glucose; Resv: Resveratrol).
(§6) In order to obtain information on the physiological relevance of targeting Sirt1 and TXNIP in normal tissues, we investigated the effect of limited glucose availability, resveratrol and DHEA in differentiated aortic smooth muscle cells, and non-differentiated, human embryonic stem cells.

[4] = test system: Sirt1; assay type: cell-based; conditions: aortic smooth muscle cells, Western blot
Procedure: as §5, §6

[5] = test system: TXNIP; assay: Western blot of TXNIP expression in human embryonic stem cells BG01V; assay type: cell-based
Procedure: as §5
(§7) To test whether cellular proliferative capacity may account for this difference, we measured expression of Sirt1 and TXNIP in embryonic stem cells known for rapid self renewal ability. The human embryonic stem cells, BG01V, were subjected to glucose restriction or treatment with either resveratrol or DHEA under similar conditions to those described in FIG. 4. […] In contrast, the consistent inhibition of TXNIP by limited glucose availability in cancer cells as well as in differentiated smooth muscle cells and non-differentiated stem cells, is indicative of a potential role of this gene in mediating the anti-aging action of calorie restriction.

[6] = test system: Sirt1; assay: Western blot of Sirt1 expression in human embryonic stem cells BG01V; assay type: cell-based
Procedure: as §5, §7

[7] = test system: TXNIP; assay: TXNIP expression in organs of treated mice (Western blot); assay type: in vivo; conditions: CD1 mice, 10 mg/Kg i.p., 2 days
Procedure: (§8) Tissue distribution of Sirt1 and TXNIP in mice and their regulation by resveratrol and DHEA. Mice CD1 strain were injected (i.p.) with 10 mg/Kg of either resveratrol or DHEA and after 2 days, the animals were sacrificed and organs harvested and processed by Western blot for the expression of Sirt1 and TXNIP. Staining with GAPDH was used as a loading control.
(§9) In order to determine whether the observed effects in vitro could be also valid in vivo, we have subjected the nude mice (CD1 strain, Charles River) to treatment with either resveratrol or DHEA (10 mg/Kg each) for 2 days. The animals were then sacrificed and major organs harvested to analyze expression of Sirt1 and TXNIP by Western blot.

[8] = test system: Sirt1; assay: Sirt1 expression in organs of treated mice (Western blot); assay type: in vivo; conditions: CD1 mice, 10 mg/Kg i.p., 2 days
Procedure: as §8, §9

[9] = test system: AMPK; assay: Phosphorylation of AMPK in cells (Western blot, anti-phospho-AMPK Thr172); assay type: cell-based; conditions: for AMPK phosphorylation: osteosarcoma cells SaOS2, 48 hours
Procedure: SaOS2 cells were treated with increasing concentrations of resveratrol for 48 hours, after what, proteins were extracted and probed either with anti-phospho-AMPK (Thr172), or with antibody to AMPK.
RGC cells were incubated with 20 or 100 μM resveratrol or DHEA 100 μM for 48 hours, and then probed for phosphor-AMPK and AMPK as described above.
However, the relevance of this action to the regulation of TXNIP by resveratrol and the possible implication of DHEA in regulating this pathway are not yet investigated. […] Further confirmation of this link will help establish TXNIP inhibition as an important determinant for evaluating the efficacy of putative anti-aging interventions.

[10] = biological target: glucose 6 phosphate dehydrogenase, G6PD (Homo sapiens, UniProt P11413); assay: G6PD activity in protein extract (NADPH production); conditions: 30 min at 37° C.; for activity of G6PD: protein extract 100 ug
Sequence of glucose 6 phosphate dehydrogenase, G6PD (P11413 whole entry): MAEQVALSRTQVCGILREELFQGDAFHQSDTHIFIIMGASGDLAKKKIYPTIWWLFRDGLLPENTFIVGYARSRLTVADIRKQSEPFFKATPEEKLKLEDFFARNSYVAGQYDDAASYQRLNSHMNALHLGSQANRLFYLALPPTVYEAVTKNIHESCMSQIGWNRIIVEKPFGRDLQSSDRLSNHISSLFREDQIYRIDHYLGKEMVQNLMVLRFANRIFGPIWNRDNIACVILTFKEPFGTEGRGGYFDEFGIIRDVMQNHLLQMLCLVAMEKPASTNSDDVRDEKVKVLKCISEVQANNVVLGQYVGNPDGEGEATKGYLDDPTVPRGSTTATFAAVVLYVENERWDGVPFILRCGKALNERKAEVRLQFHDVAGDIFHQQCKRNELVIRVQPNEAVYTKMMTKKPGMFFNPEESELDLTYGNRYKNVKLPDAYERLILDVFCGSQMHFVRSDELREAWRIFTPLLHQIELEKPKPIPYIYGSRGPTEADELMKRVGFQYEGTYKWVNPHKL
Procedure: Protein extract (100 _g) was incubated with DHEA or resveratrol at the indicated concentrations, after 30 min at 37° C., the activity of G6PD was measured as described in the methods section.

[11] = retinal glial cells (RGC), 48 hours

Row | SMILES | expression of TXNIP ([1]; SaOS2 cells) | effects of glucose on TXNIP expression after pre-treatment ([1]; cells with different concentrations of glucose with or without DHEA, 48 hours) | expression of Sirt1 ([2]; SaOS2 cells) | expression of TXNIP [3] | expression of Sirt1 [4] | expression of TXNIP [5] | expression of Sirt1 [6] | expression of TXNIP in the lung [7] | expression of TXNIP in the muscle [7] | expression of Sirt1 in most tissues [8] | AMPK phosphorylation [9] | activity of G6PD [10] | inhibitory effect on G6PD observed ([10]; protein extract, assay based on production of NADPH) [%] | expression of TXNIP ([1]; RGC cells, 48 hours) | expression of Sirt1 ([2]; RGC cells, 48 hours) | AMPK phosphorylation (p-AMPK) [9, 11] | expression of AMPK [9, 11]
1 | C[C@]12CC[C@H](O)CC1=CC[C@@H]1[C@@H]2CC[C@]2(C)C(=O)CC[C@@H]12 [DHEA, dehydroepiandrosterone] | decreased expression | almost completely blocked | decreased expression | without effect | without effect | none of these genes was affected | none of these genes was affected | inhibited the expression | inhibitory effect | not significantly affect | without effect | strongly inhibited and in a dose dependent manner | 50 | – | – | – | –
2 | Oc1ccc(C=Cc2cc(O)cc(O)c2)cc1 [resveratrol] | stimulatory action at low concentrations and inhibition at higher ones | – | suppressed the expression | inhibited the expression of TXNIP in a dose dependent manner | no significant changes in Sirt1 expression | none of these genes was affected | none of these genes was affected | inhibited the expression | only DHEA had an inhibitory effect in the muscle | not significantly affect | induced AMPK phosphorylation | no effect | – | stimulatory action at low concentrations and inhibition at higher ones | suppressed the expression | readily activates | without affecting expression
